Source: patent publication US12459951B2, “Compounds that interact with RAS superfamily proteins for treatment of cancers, inflammatory diseases, rasopathies, and fibrotic disease” (SHY Therapeutics, LLC, priority 2022, dated 2025)

Experiments:
[1] = test system: MAPK p38 phosphorylation; assay: MAPK p38 Activation Assay (western blot), Panc-1; type: cell-based, human; conditions: at 10 μM, Panc-1 pancreatic cancer cell line; starred symbols = activation
How it was run: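 Panc-1 cells (KRas G12D) were treated with compound for 6 h at 37 °C, at 10 μM or as serial dilutions for IC50, with 0.3% DMSO. Method 1 used overnight serum-starved cells (0.5% FBS) stimulated with 1.5 ng/ml EGF for 15 min; Method 2 used unstimulated cells in 10% FBS. Phospho-p38 (Thr180/Tyr182) was detected by western blot.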

[2] = test system: KRas G12C mutant; assay: Ras GTP Binding Domain Inhibition Assay (Ras Superfamily Assay); conditions: 20 μM compound; for KRas G12C mutant + SOS: % inh.: with SOS; for KRas G12C mutant: % inh.: without SOS
How it was run: (§1)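 His-tagged GTPases immobilised on nickel-coated plates, pre-incubated with compound (20 μM single point, or serial dilution for IC50) 3 h at room temperature, with or without 10-30 μg/mL Sos (residues 556-1049) in the final hour. Bound Cy3- or Cy5-GTP (100 nM, 45 min) measured by fluorescence after washing.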

[3] = test system: KRas Q61H mutant; assay: as above; conditions: 20 μM compound; for KRas Q61H mutant + SOS: % inh.: with SOS; for KRas Q61H mutant: % inh.: without SOS
How it was run: as §1

[4] = biological target: T1, Rho-A (Homo sapiens, UniProt P61586); assay: as above; conditions: read-out: Rho-A: % inh..
T1 construct: made in house
How it was run: as §1

T1 sequence (P61586 whole entry): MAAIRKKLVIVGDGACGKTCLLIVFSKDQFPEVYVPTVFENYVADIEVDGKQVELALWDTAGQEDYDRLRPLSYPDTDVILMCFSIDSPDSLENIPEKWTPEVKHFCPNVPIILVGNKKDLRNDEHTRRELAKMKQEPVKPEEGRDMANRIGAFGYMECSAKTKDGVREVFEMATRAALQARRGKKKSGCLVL

KRas G12C mutant + SOS: % inh. [2] | KRas G12C mutant: % inh. [2] | KRas Q61H mutant + SOS: % inh. [3] | KRas Q61H mutant: % inh. [3] | inhibition at 20 µM [4] [%] | SMILES | % inh of MAPK p38 in Panc-1 [1]
0 (0 = 0% inhibition) | 0 (0 = 0% inhibition) | 0 (0 = 0% inhibition) | 0 (0 = 0% inhibition) | 1 to 25 | COC1CCCN(c2nc(-c3nccn3C)nn3cc(-c4ccn(C(C)C)n4)c(C)c23)C1 (racemic) [Compound 4, rac 6-(1-Isopropyl-1H-pyrazol-3-yl)-5-methyl-2-(1-methyl-1H-imidazol-2-yl)-4-(3-(oxo-γ6-methyl)piperidin-1-yl)pyrrolo[2,1-f][1,2,4]triazine] | G* (G* = 75-99% activation)
C (C = 50-75% inhibition) | C (C = 50-75% inhibition) | C (C = 50-75% inhibition) | C (C = 50-75% inhibition) | 76 to 100 | CC(C)n1ccc(-c2cn3nc(-c4nccn4C)nc(O)c3c2-c2ccccc2)n1 [Compound 17, 6-(1-Isopropyl-1H-pyrazol-3-yl)-2-(1-methyl-1H-imidazol-2-yl)-5-phenylpyrrolo[2,1-f][1,2,4]triazin-4-ol] | 0 (0 = 0% inhibition)
